Experiments:
Type in all cases: in vivo
Col3a1^G938D mice = assay: Survival drug trial in Col3a1^G938D/+ (vEDS) mice, Kaplan-Meier
Description: All mice were maintained on a C57BL/6J background (#000664, The Jackson Laboratory). ET1^fl/fl f mice were obtained from RIKEN (RBRC06322). Tie2-Cre mice and Sm22-Cre mice were obtained from the Jackson Laboratory (#004128. #017491). All mice were genotyped according to published protocols.
Restriction enzymes were used to detect the presence or absence of the Col3a1 mutation as previously described. The G938D mutation leads to the gain of a BamHI cut site (R3136S, New England Biolabs). All mice found dead were assessed for cause of death by necropsy, noting in particular hemothorax and hemoperitoneum.
For drug trials in the Col3a1^G938D/+ mice, mice were initiated on medication at weaning and continued until 2 months of age. Cobimetinib (GDC-0973/RO551404, Active Biochem) was dissolved in drinking water and filtered to reach a final concentration of 0.02 g/L giving an estimated dose of 2 mg/kg/day. Ruboxistaurin (LY333531 HCl, Selleck Chemicals) was mixed with powdered food (LabDiet) to give a concentration of 0.1 mg/g giving an estimated dose of 8 mg/kg/day. […]
By design, each treatment trial included contemporaneous control (untreated) mice. […] All p-values calculated by log-rank comparisons (using Prism) are reported as unadjusted p-values, given the interdependence of many of the drug mechanisms. […]

p-PKC = assay: Western blot of p-PKC in proximal descending thoracic aorta of treated Col3a1^G938D mice; conditions: normalized to β-actin, vs untreated
Method: (§1) Protein was extracted using an automatic bead homogenizer in conjunction with a Protein Extraction Kit (Full Moon Biosystems). All protein lysis buffers contained both PhosSTOP and cOmplete™, Mini, EDTA-free Protease Inhibitor Cocktail (Roche). Western blotting was performed using LI-COR buffer and species appropriate secondary antibodies conjugated to IR-dye700 or IRdye-800 (LI-COR Biosciences), according to the manufacturer's guidelines and analyzed using LI-COR Odyssey. The following primary antibodies were used: anti-β-Actin (8H10D10) (Cell Signaling Technology, 3700), anti-phospho ERK1/2 (Cell Signaling Technology, 4370), anti-PKCβ (phospho S660) (Abcam, 75837), anti-Endothelin-1 (TR.ET.48.5) (Thermo Fisher Scientific, MA3005), anti-Endothelin-1 (TR.ET.48.5) (Abcam, 2786).
(§2) pERK and pPKC amounts were normalized to j-actin as opposed to total ERK or total PKC for a variety of practical reasons. First, it is the amount of phosphorylated protein, and not the ratio of phosphorylated to unphosphorylated protein, that drives cellular responses. Second, we are unaware of any pathophysiologic context where the amount of unphosphorylated protein is limiting (i.e. always in excess). […]

p-ERK1/2 = assay: Western blot of p-ERK1/2 in proximal descending thoracic aorta of treated Col3a1^G938D mice; conditions: normalized to β-actin, vs untreated
Method: as §1, §2

Endothelin-1 = assay: Immunofluorescence of Endothelin-1 in descending thoracic aorta of treated Col3a1^G938D/+ mice; conditions: descending thoracic aorta of 8-week-old Col3a1^G938D/+ mice, treated from weaning; cobimetinib est. 2 mg/kg/day, ruboxistaurin est. 8 mg/kg/day
Method: Mice were euthanized by isoflurane inhalation and the left common iliac artery was transected to allow for drainage. PBS (pH 7.4) and PBS containing 4% paraformaldehyde (PFA) was flushed through the left ventricle. The heart and thoracic aorta were removed en bloc and fixed in 4% PFA overnight at 4° C. Aortas were submitted for paraffin fixation and longitudinal sections 5 micrometers thick were mounted on glass slides and stained with hematoxylin & eosin (HE), Verhoeff-van Giesen (VVG), Masson's Trichrome, or Picrosirius red (PSR). Slides were imaged at 20× and 40× magnification using a Nikon Eclipse E400 microscope. Collagen content was determined by polarized PSR intensity (31) and elastin breaks were counted by a researcher blinded to genotype and treatment arm using only VVG stained sections where elastin breaks were clearly visualized.
For immunofluorescence, slides were incubated in antigen retrieval solution for 1 minute in a pressure cooker. Sections were incubated with 1% BSA for one hour at room temperature. Primary antibodies were diluted at 1:200 in 1% BSA and incubated overnight at 4° C. Three consecutive washes were performed prior to incubation with anti-rabbit secondary antibodies conjugated to Alexa Fluor 488 (Invitrogen A-11039) or anti-mouse secondary antibodies conjugated to Alexa Fluor 594 (Invitrogen R37119) at 1:200 for 1 hour at room temperature. […]

Row | Compound | effect on survival (in words) (Col3a1^G938D mice; Col3a1^G938D/+ mice vs untreated, Log-Rank (Mantel-Cox)) | mice surviving to the end of the trial (Col3a1^G938D mice; vEDS (Col3a1^G938D) mice, drug from weaning (P21), followed 45 days, in food, estimated 100 mg/kg/day, untreated 46%) [%] | p-PKC level in aorta (in words) (p-PKC) | p-ERK1/2 level in aorta (in words) (p-ERK1/2) | ET1 protein levels in aorta (in words) (Endothelin-1)
1 | COc1ccccc1Oc1c(NS(=O)(=O)c2ccc(C(C)(C)C)cc2)nc(-c2ncccn2)nc1OCCO [bosentan, Bosentan] | moderately but significantly improved survival | 70 | marked downregulation | not p-ERK1/2 | –
2 | O=C(c1ccc(F)c(F)c1Nc1ccc(I)cc1F)N1CC(O)([C@@H]2CCCCN2)C1 [cobimetinib, Cobimetinib] | – | – | – | – | attenuated
3 | CN(C)C[C@@H]1CCn2cc(c3ccccc32)C2=C(C(=O)NC2=O)c2cn(c3ccccc23)CCO1 [ruboxistaurin, Ruboxistaurin] | – | – | – | – | attenuated
